Reference: patent publication US20190282566A1, “USE OF FLIBANSERIN IN THE TREATMENT OF OBESITY” (Sprout Pharmaceuticals, Inc., priority 2005, published 2019)

How the values were obtained:
[1] = 13-week dietary admixture study in rats, body weight; type: in vivo
Description: To test the efficacy of Flibanserin in the treatment of obesity groups of the rats per sex per group (gang-housed) received Flibnanserin at dosages of 0 (control), 100, 200, and 600 mg/kg/day via dietary admixture. The test compound was mixed with the food to obtain a 3% premix. This premix was prepared in week −1 and drug week 7 and was used to prepare the substance/food mixtures for all individual groups. The substance/food concentration was calculated using the mean daily food intake from the study week before. The substance/food mixture was made weekly for every dose group and stored under darkness in the animal room. The concentration, homogeneity and stability of the test substance in the food was checked during study week 2 with reanalysis one and four weeks later. One further check of concentration and homogeneity was performed in week 13. The body weight of each animal was determined and recorded once a week including the pretest acclimation period, in the morning on the same day of the week.
The following tables presents the results of the above described experiments as absolute body weights at start of treatment (week −1) as well as in drug week 6 and 13, including percentage change compared to controls. (in parentheses).

5-HT1A receptor = target: T1, 5-HT1A receptor (Homo sapiens, UniProt P08908); settings: cited from earlier work
T1 sequence (P08908 1-422): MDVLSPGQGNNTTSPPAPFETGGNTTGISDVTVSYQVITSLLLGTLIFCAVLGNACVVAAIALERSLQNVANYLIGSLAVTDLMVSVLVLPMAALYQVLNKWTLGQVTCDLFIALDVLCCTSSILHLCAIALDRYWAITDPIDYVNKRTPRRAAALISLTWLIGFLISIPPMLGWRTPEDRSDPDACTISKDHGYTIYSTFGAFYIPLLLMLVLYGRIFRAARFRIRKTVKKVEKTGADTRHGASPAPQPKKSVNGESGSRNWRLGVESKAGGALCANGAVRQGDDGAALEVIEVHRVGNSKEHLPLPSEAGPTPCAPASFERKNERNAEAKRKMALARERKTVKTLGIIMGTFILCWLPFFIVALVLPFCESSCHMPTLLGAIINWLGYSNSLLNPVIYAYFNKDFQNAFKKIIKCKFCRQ

5-HT2-receptor family = settings: cited from earlier work
[2] = female rats, 100 mg/kg/day via diet, drug week 6
[3] = female rats, 100 mg/kg/day via diet, drug week 13
[4] = female rats, 100 mg/kg/day via diet, drug week −1 (start of treatment)
[5] = female rats, 200 mg/kg/day via diet, drug week 6
[6] = female rats, 200 mg/kg/day via diet, drug week 13
[7] = female rats, 200 mg/kg/day via diet, drug week −1 (start of treatment)
[8] = female rats, 600 mg/kg/day via diet, drug week 6
[9] = female rats, 600 mg/kg/day via diet, drug week 13
[10] = female rats, 600 mg/kg/day via diet, drug week −1 (start of treatment)
[11] = male rats, 100 mg/kg/day via diet, drug week 6
[12] = male rats, 100 mg/kg/day via diet, drug week 13
[13] = male rats, 100 mg/kg/day via diet, drug week −1 (start of treatment)
[14] = male rats, 200 mg/kg/day via diet, drug week 6
[15] = male rats, 200 mg/kg/day via diet, drug week 13
[16] = male rats, 200 mg/kg/day via diet, drug week −1 (start of treatment)
[17] = male rats, 600 mg/kg/day via diet, drug week 6
[18] = male rats, 600 mg/kg/day via diet, drug week 13
[19] = male rats, 600 mg/kg/day via diet, drug week −1 (start of treatment)

O=c1[nH]c2ccccc2n1CCN1CCN(c2cccc(C(F)(F)F)c2)CC1 [BIMT 17 BS, 1-[2-(4-(3-trifluoromethyl-phenyl)piperazin-1-yl)ethyl]-2,3-dihydro-1H-benzimidazol-2-one]
Mean absolute body weight [1, 2]: 213.6 grams | percent change to controls (body weight) [1, 2]: −6.8% | Mean absolute body weight [1, 3]: 234.5 grams | percent change to controls (body weight) [1, 3]: −10.3% | Mean absolute body weight [1, 4]: 141.3 grams | percent change to controls (body weight) [1, 4]: +0.1% | Mean absolute body weight [1, 5]: 209.7 grams | percent change to controls (body weight) [1, 5]: −8.5% | Mean absolute body weight [1, 6]: 234.9 grams | percent change to controls (body weight) [1, 6]: −10.2% | Mean absolute body weight [1, 7]: 142.2 grams | percent change to controls (body weight) [1, 7]: +0.7% | Mean absolute body weight [1, 8]: 196.0 grams | percent change to controls (body weight) [1, 8]: −14.4% | Mean absolute body weight [1, 9]: 225.8 grams | percent change to controls (body weight) [1, 9]: −13.7% | Mean absolute body weight [1, 10]: 140.7 grams | percent change to controls (body weight) [1, 10]: −0.4% | difference compared to controls at study end (body weight decrease) ([1]; females, 100 mg/kg/day): 10% | difference compared to controls at study end (body weight decrease) ([1]; females, 200 mg/kg/day): 10% | difference compared to controls at study end (body weight decrease) ([1]; females, 600 mg/kg/day): 14% | Mean absolute body weight [1, 11]: 340.9 grams | percent change to controls (body weight) [1, 11]: −7.4% | Mean absolute body weight [1, 12]: 397.4 grams | percent change to controls (body weight) [1, 12]: −9.8% | Mean absolute body weight [1, 13]: 188.1 grams | percent change to controls (body weight) [1, 13]: −1.7% | Mean absolute body weight [1, 14]: 340.4 grams | percent change to controls (body weight) [1, 14]: −7.5% | Mean absolute body weight [1, 15]: 400.9 grams | percent change to controls (body weight) [1, 15]: −9.0% | Mean absolute body weight [1, 16]: 189.3 grams | percent change to controls (body weight) [1, 16]: −1.0% | Mean absolute body weight [1, 17]: 284.8 grams | percent change to controls (body weight) [1, 17]: −22.7% | Mean absolute body weight [1, 18]: 333.2 grams | percent change to controls (body weight) [1, 18]: −24.3% | Mean absolute body weight [1, 19]: 186.8 grams | percent change to controls (body weight) [1, 19]: −2.4% | difference compared to controls at study end (body weight decrease) ([1]; males, 100 mg/kg/day): 10% | difference compared to controls at study end (body weight decrease) ([1]; males, 200 mg/kg/day): 9% | difference compared to controls at study end (body weight decrease) ([1]; males, 600 mg/kg/day): 24% | body weight gain of males and females ([1]; rats, 100, 200 and 600 mg/kg/day via diet, in almost all drug weeks, versus controls): significantly decreased | affinity for the 5-HT1A receptor (5-HT1A receptor): shows affinity | affinity for the 5-HT2-receptor family (5-HT2-receptor family): shows affinity
